Consider 13 compounds from PubChem BioAssay (NCI).

Test systems include NCI-H522 lung; RPMI-8226 leukemia; SK-OV-3 ovarian; UACC-257 melanoma; SF-268 CNS; UO-31 renal; A498 renal; SNB-19 CNS; SW-620 colon; SR leukemia.
Test in all cases: inhibition of tumour cell growth, NCI panel, 48 h

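Test compounds were applied to cells in 96-well plates for 48 hours at 5 doses. GI50 marks 50% less growth. TGI denotes the concentration required for complete inhibition of growth.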 Some results are limits rather than exact numbers.

Consider `COc1cccc2c(Nc3ccc(C(=O)NCCN4CCNCC4)cc3)cc(-c3ccccc3)nc12`, for which the GI50 with NCI-H522 lung was 15.8 µM; in the experiment on RPMI-8226 leukemia, 18 µM; with SK-OV-3 ovarian, greater than 100 µM; with UACC-257 melanoma, greater than 100 µM; in the experiment with SF-268 CNS, 50.1 µM; with UO-31 renal, 49.4 µM. Also, the GI50 is greater than 100 µM in the experiment on A498 renal, 53.1 µM in the experiment on SNB-19 CNS and 29 µM in the experiment on SW-620 colon. Also, the TGI with NCI-H522 lung is 30.5 µM; with RPMI-8226 leukemia, 44.3 µM; in the experiment with SK-OV-3 ovarian it was greater than 100 µM; with UACC-257 melanoma it was greater than 100 µM; with SF-268 CNS, greater than 100 µM; with UO-31 renal, greater than 100 µM. The TGI in the experiment on A498 renal, in the experiment with SNB-19 CNS and in the experiment with SW-620 colon was greater than 100 µM each time.

As for `CCNC(=O)O/N=C1/C=C2CC[C@@H]3C(CC[C@@]4(C)C3CC[C@@H]4OC(=O)NCC)[C@@]2(C)CC1` (stereo partly specified), the TGI in the experiment on NCI-H522 lung is 4.77 µM; in the experiment on RPMI-8226 leukemia, 7.02 µM; with SK-OV-3 ovarian it was 7.8 µM; with UACC-257 melanoma it was 11.1 µM; in the experiment with UO-31 renal it was 3.46 µM; in the experiment with A498 renal, greater than 100 µM. In addition, the TGI in the experiment on SNB-19 CNS was 8.21 µM; in the experiment with SW-620 colon, 11.4 µM.

For `Cc1[nH]n(C(=O)c2ccc(Cl)cc2)c(=O)c1/C=C1\C(O)=CC(=O)c2ccccc21`, the TGI with NCI-H522 lung, in the experiment on RPMI-8226 leukemia, with SK-OV-3 ovarian, in the experiment with UACC-257 melanoma, with SF-268 CNS and with UO-31 renal was greater than 100 µM in each case. Besides, the TGI in the experiment with A498 renal, with SNB-19 CNS and in the experiment on SW-620 colon was greater than 100 µM each time.

On to `Cc1nc(-c2cccnc2)sc1C(=O)/C=C/c1ccc(Cl)cc1Cl`, for which the TGI in the experiment with NCI-H522 lung, with RPMI-8226 leukemia, in the experiment on SK-OV-3 ovarian, in the experiment on UACC-257 melanoma, with SF-268 CNS and with UO-31 renal was greater than 100 µM each time. Further, the TGI with A498 renal and in the experiment on SW-620 colon was greater than 100 µM each time.

On to `Nc1nc(N)c(-c2ccccc2)c(C(=O)Nc2nccs2)n1`, for which the TGI in the experiment with SK-OV-3 ovarian, with UACC-257 melanoma, in the experiment with SF-268 CNS, in the experiment with UO-31 renal, with SNB-19 CNS and in the experiment with SW-620 colon was greater than 100 µM each time.

Turning to `O=C(O)C12C3C4C1C1C2C3C41I` (stereo unspecified), the TGI with NCI-H522 lung, in the experiment with RPMI-8226 leukemia, in the experiment on SK-OV-3 ovarian, in the experiment with UACC-257 melanoma, in the experiment with SF-268 CNS and in the experiment on UO-31 renal was greater than 100 µM throughout. In addition, the TGI in the experiment with A498 renal, with SNB-19 CNS and in the experiment with SW-620 colon was greater than 100 µM each time.

As to `Cc1cc(C2(c3cc(C)c(O)c4ncccc34)OC(=O)c3ccccc32)c2cccnc2c1O`, the TGI is greater than 100 µM in the experiment with NCI-H522 lung; greater than 100 µM in the experiment with RPMI-8226 leukemia; 21.9 µM with SK-OV-3 ovarian; greater than 100 µM with UACC-257 melanoma; greater than 100 µM in the experiment with A498 renal; greater than 100 µM with SW-620 colon. For the same compound, the GI50 is 0.496 µM in the experiment on UACC-257 melanoma, 12.3 µM in the experiment with A498 renal, 0.0365 µM with SNB-19 CNS and 0.0521 µM with SW-620 colon.

Take `CC(C)=NO.CC(C)=NO.CC(C)=NO.CC(C)=NO.[Ti]`: the GI50 in the experiment on NCI-H522 lung, in the experiment with RPMI-8226 leukemia, in the experiment on SK-OV-3 ovarian, in the experiment with UACC-257 melanoma, with SF-268 CNS and in the experiment with UO-31 renal was greater than 100 µM throughout. The GI50 in the experiment with SNB-19 CNS and in the experiment with SW-620 colon was greater than 100 µM each time. Moreover, the TGI in the experiment with NCI-H522 lung, in the experiment with RPMI-8226 leukemia, with SK-OV-3 ovarian, with UACC-257 melanoma, in the experiment on SF-268 CNS and with UO-31 renal was greater than 100 µM each time. The TGI with SNB-19 CNS and with SW-620 colon was greater than 100 µM throughout.

Take `CCOC(=O)Oc1ccc2[nH]c3c(C)cc(N)c(C)c3c2c1`: the TGI with NCI-H522 lung, with RPMI-8226 leukemia, in the experiment on SR leukemia, with UACC-257 melanoma, in the experiment on SF-268 CNS and with UO-31 renal was greater than 100 µM throughout. Further, the TGI in the experiment with SNB-19 CNS and in the experiment on SW-620 colon was greater than 100 µM each time.

In the case of `COc1ccc(Cl)cc1Nc1nc(C(F)(F)F)ccc1C(=O)N/N=C/c1ccc(Cl)cc1`, the GI50 with NCI-H522 lung is 4.16 µM; with RPMI-8226 leukemia, 3.5 µM; with SK-OV-3 ovarian, 1.95 µM; with UACC-257 melanoma, 7.91 µM; in the experiment on SF-268 CNS, 1.96 µM; with UO-31 renal, 1.03 µM. Moreover, the values for the GI50 in the experiment with A498 renal, in the experiment on SNB-19 CNS and in the experiment with SW-620 colon were 18.2 µM, 6.42 µM and 8.2 µM, respectively. The TGI was 42.5 µM with NCI-H522 lung; greater than 100 µM with RPMI-8226 leukemia; 22.9 µM in the experiment on SK-OV-3 ovarian; greater than 100 µM in the experiment with UACC-257 melanoma; 27.9 µM in the experiment on SF-268 CNS; greater than 100 µM with UO-31 renal. In addition, the TGI with A498 renal, in the experiment on SNB-19 CNS and in the experiment on SW-620 colon was greater than 100 µM throughout.

On to `COC(=O)C1=C(C)N(NC(=O)Nc2ccccc2)C2(N)N(NC(=O)Nc3ccccc3)C(C)=C(C(=O)OC)C12C(=O)OC` (stereo unspecified), for which the TGI in the experiment with NCI-H522 lung is greater than 100 µM; with RPMI-8226 leukemia, 78.5 µM; in the experiment with SK-OV-3 ovarian, greater than 100 µM; in the experiment with UACC-257 melanoma, greater than 100 µM; in the experiment on SF-268 CNS, greater than 100 µM; with UO-31 renal it was greater than 100 µM. Besides, the TGI in the experiment with A498 renal and in the experiment with SW-620 colon was greater than 100 µM in each case.

`O=[N+]([O-])c1cccc(C2=NOC3CCCC23)c1` (stereo unspecified): the TGI in the experiment with NCI-H522 lung, in the experiment with RPMI-8226 leukemia, with SK-OV-3 ovarian, in the experiment on UACC-257 melanoma, in the experiment with SF-268 CNS and in the experiment with UO-31 renal was greater than 100 µM throughout. In addition, the TGI with A498 renal, in the experiment on SNB-19 CNS and in the experiment with SW-620 colon was greater than 100 µM throughout.

In the case of `CC(C)c1nc(Cl)c(Cl)c(Cl)n1`, the TGI was found to be 8.64 µM in the experiment on NCI-H522 lung; 14.7 µM in the experiment on RPMI-8226 leukemia; 37.9 µM in the experiment on SK-OV-3 ovarian; 17.8 µM in the experiment on UACC-257 melanoma; 9.29 µM in the experiment with SF-268 CNS; 2.66 µM in the experiment on UO-31 renal. Also, the TGI with A498 renal is 52 µM; in the experiment on SNB-19 CNS it was 36.2 µM; in the experiment with SW-620 colon, 15.6 µM.
